According to patent US20250302815A1, “PROTEIN TYROSINE PHOSPHATASE TARGETING LIGANDS” (CALICO LIFE SCIENCES LLC, priority 2021, published 2025):

Assays:
[1] = target: T1, PTPN2 (HiBIT-PTPN2 in 293T.109 cells) (Homo sapiens, UniProt P17706); assay: HiBiT Degradation 293T.109 PTPN2 (Nano-Glo HiBiT Lytic Assay); assay type: cell-based; settings: 24.0 hours
T1 construct: expressed in transfected cells; host or cells: 293T.109 (293T WT from ATCC)
T1 sequence (P17706 1-415): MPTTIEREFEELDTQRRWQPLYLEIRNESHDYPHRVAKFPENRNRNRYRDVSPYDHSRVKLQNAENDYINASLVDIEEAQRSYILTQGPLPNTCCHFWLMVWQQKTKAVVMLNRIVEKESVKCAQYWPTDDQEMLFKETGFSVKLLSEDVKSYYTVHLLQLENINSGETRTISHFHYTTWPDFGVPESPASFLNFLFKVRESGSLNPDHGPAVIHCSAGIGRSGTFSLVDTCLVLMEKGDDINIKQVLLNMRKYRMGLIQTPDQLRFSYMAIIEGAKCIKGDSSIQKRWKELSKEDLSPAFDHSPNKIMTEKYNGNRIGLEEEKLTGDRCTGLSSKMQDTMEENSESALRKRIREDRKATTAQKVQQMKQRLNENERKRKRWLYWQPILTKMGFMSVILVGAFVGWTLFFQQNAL
Method in brief: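 Degradation read-out: lytic HiBiT luminescence after 24 h treatment (37 °C, 5% CO2) of 5000 293T cells per well expressing HiBiT-fused PTPN2 from an N-terminal tag. Dosing was 11 points, half-log steps down from 10 μM, in duplicate; vehicle-treated and no-reagent wells served as controls.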

PTPN2 (B16F10.4 cells) = target: T2, PTPN2 (B16F10.4 cells) (Mus musculus, UniProt Q06180); assay: HiBiT Degradation B16F10.4 PTPN2; assay type: cell-based; settings: 24.0 hours
T2 construct: HiBiT; host or cells: B16F10.4
T2 sequence (Q06180 1-406): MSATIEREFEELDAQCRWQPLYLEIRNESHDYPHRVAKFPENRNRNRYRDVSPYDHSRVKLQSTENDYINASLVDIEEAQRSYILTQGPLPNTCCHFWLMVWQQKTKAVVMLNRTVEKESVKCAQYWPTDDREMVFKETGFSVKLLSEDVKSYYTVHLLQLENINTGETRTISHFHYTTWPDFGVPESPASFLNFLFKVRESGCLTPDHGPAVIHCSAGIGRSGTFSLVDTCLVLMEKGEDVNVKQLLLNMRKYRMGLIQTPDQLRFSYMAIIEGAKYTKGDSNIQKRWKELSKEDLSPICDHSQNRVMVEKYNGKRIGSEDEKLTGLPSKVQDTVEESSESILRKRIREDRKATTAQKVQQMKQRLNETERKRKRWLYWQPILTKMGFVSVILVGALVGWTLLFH

DC50 [1] [nM] | DC50 (PTPN2 (B16F10.4 cells)) [nM] | Compound
200 to 1000 | ≥ 1000 | CC(C)(c1cccc(NC(=O)CCCCCCNC(=O)CNc2cccc3c2CN(C2CCC(=O)NC2=O)C3=O)c1)S(=O)(=O)N1CCC(Nc2cccc(-c3sc(C(=O)O)c(OCC(=O)O)c3Cl)c2)CC1 (stereo not drawn) [Example 40, 3-(carboxymethoxy)-4-chloro-5-[3-[[1-[1-[3-[7-[[2-[[2-(2,6-dioxo-3-piperidyl)-1-oxo-isoindolin-4-yl]amino]acetyl]amino]heptanoylamino]phenyl]-1-methyl-ethyl]sulfonyl-4-piperidyl]amino]phenyl]thiophene-2-carboxylic acid]
200 to 1000 | ≥ 1000 | O=C(O)COc1c(C(=O)O)sc(-c2cccc(NC3CCN(S(=O)(=O)Cc4cccc(NC(=O)CCCCCNC(=O)CNc5cccc6c5CN(C5CCC(=O)NC5=O)C6=O)c4)CC3)c2)c1Cl (stereo not drawn) [Example 21, 3-(carboxymethoxy)-4-chloro-5-(3-((1-((3-(6-(2-((2-(2,6-dioxopiperidin-3-yl)-1-oxoisoindolin-4-yl)amino)acetamido)hexanamido)benzyl)sulfonyl)piperidin-4-yl)amino)phenyl)thiophene-2-carboxylic acid]
200 to 1000 | ≥ 1000 | CC1(C)C[C@@H](Nc2cccc(-c3sc(C(=O)O)c(OCC(=O)O)c3Cl)c2)CCN1S(=O)(=O)Cc1cccc(NC(=O)C2CCN(C(=O)COc3cccc4c3C(=O)N(C3CCC(=O)NC3=O)C4=O)CC2)c1 (stereo partly drawn) [Example 58, 3-(carboxymethoxy)-4-chloro-5-[3-[[(4S)-1-[3-[[1-[2-[[2-(2,6-dioxo-3-piperidyl)-1,3-dioxo-isoindolin-4-yl]oxyacetyl]piperidine-4-carbonyl]amino]phenyl]methylsulfonyl]-2,2-dimethyl-4-piperidyl]amino]phenyl]thiophene-2-carboxylic acid]
200 to 1000 | 200 to 1000 | O=C(O)COc1c(C(=O)O)sc(-c2cccc(NC3CCN(S(=O)(=O)Cc4cccc(NC(=O)N5CCC(Oc6cccc7c6CN(C6CCC(=O)NC6=O)C7=O)CC5)c4)CC3)c2)c1Cl (stereo not drawn) [Example 65]
200 to 1000 | ≥ 1000 | O=C(O)COc1c(C(=O)O)sc(-c2cccc(NC3CCN(S(=O)(=O)Cc4cccc(NC(=O)CCCCNC(=O)CNc5cccc6c5CN(C5CCC(=O)NC5=O)C6=O)c4)CC3)c2)c1Cl (stereo not drawn) [Example 22, 3-(carboxymethoxy)-4-chloro-5-(3-((1-((3-(5-(2-((2-(2,6-dioxopiperidin-3-yl)-1-oxoisoindolin-4-yl)amino)acetamido)pentanamido)benzyl)sulfonyl)piperidin-4-yl)amino)phenyl)thiophene-2-carboxylic acid]
< 50 | ≥ 1000 | O=C(O)COc1c(C(=O)O)sc(-c2cccc(NC3CCN(S(=O)(=O)Cc4ccc(F)c(NC(=O)C5CN(C(=O)CNc6cccc7c6CN(C6CCC(=O)NC6=O)C7=O)C5)c4)CC3)c2)c1Cl (stereo not drawn) [Example 78]
50 to 200 | < 50 | Cn1c(=O)n(C2CCC(=O)NC2=O)c2ccc(C3CCN(C(=O)Nc4cccc(CS(=O)(=O)N5CCC(Nc6cccc(-c7sc(C(=O)O)c(OCC(=O)O)c7Cl)c6)CC5)c4F)CC3)cc21 (stereo not drawn) [Example 99, 3-(carboxymethoxy)-4-chloro-5-[3-[[1-[[3-[[4-[1-(2,6-dioxo-3-piperidyl)-3-methyl-2-oxo-benzimidazol-5-yl]piperidine-1-carbonyl]amino]-2-fluoro-phenyl]methylsulfonyl]-4-piperidyl]amino]phenyl]thiophene-2-carboxylic acid]

More lines, now with the values behind:

Compound | DC50 [1] [nM] | DC50 (PTPN2 (B16F10.4 cells)) [nM]
Cn1c(=O)n(C2CCC(=O)NC2=O)c2ccc(N3CCC(CCNCCNc4cccc(CS(=O)(=O)N5CC[C@H](Nc6cccc(-c7sc(C(=O)O)c(OCC(=O)O)c7Cl)c6)CC5(C)C)c4)CC3)cc21 (stereo partly drawn) [Example 237, 3-(carboxymethoxy)-4-chloro-5-[3-[[(4S)-1-[[3-[2-[2-[1-[1-(2,6-dioxo-3-piperidyl)-3-methyl-2-oxo-benzimidazol-5-yl]-4-piperidyl]ethylamino]ethylamino]phenyl]methylsulfonyl]-2,2-dimethyl-4-piperidyl]amino]phenyl]thiophene-2-carboxylic acid] | < 50 | 50 to 200
Cn1c(=O)n(C2CCC(=O)NC2=O)c2ccc(N3CCC4(CC3)CN(C(=O)Nc3cccc(CS(=O)(=O)N5CCC(Nc6cccc(-c7sc(C(=O)O)c(OCC(=O)O)c7Cl)c6)CC5)c3)C4)cc21 (stereo not drawn) [Example 102, 3-(carboxymethoxy)-4-chloro-5-[3-[[1-[[3-[[7-[1-(2,6-dioxo-3-piperidyl)-3-methyl-2-oxo-benzimidazol-5-yl]-2,7-diazaspiro[3.5]nonane-2-carbonyl]amino]phenyl]methylsulfonyl]-4-piperidyl]amino]phenyl]thiophene-2-carboxylic acid] | 50 to 200 | 50 to 200
Cn1c(=O)n(C2CCC(=O)NC2=O)c2ccc(N3CCC(N4CCN(c5cccc(CS(=O)(=O)N6CCC(Nc7cccc(-c8sc(C(=O)O)c(OCC(=O)O)c8Cl)c7)CC6)c5)C4=O)CC3)cc21 (stereo not drawn) [Example 142, 3-(carboxymethoxy)-4-chloro-5-(3-((1-((3-(3-(1-(1-(2,6-dioxopiperidin-3-yl)-3-methyl-2-oxo-2,3-dihydro-1H-benzo[d]imidazol-5-yl)piperidin-4-yl)-2-oxoimidazolidin-1-yl)benzyl)sulfonyl)piperidin-4-yl)amino)phenyl)thiophene-2-carboxylic acid] | < 50 | 50 to 200
Cn1c(=O)n(C2CCC(=O)NC2=O)c2ccc([C@H]3CN(C(=O)Nc4cccc(CS(=O)(=O)N5CC[C@H](Nc6cccc(-c7sc(C(=O)O)c(OCC(=O)O)c7Cl)c6)CC5(C)C)c4)CC[C@@H]3F)cc21 (stereo partly drawn) [Example 214, 3-(carboxymethoxy)-4-chloro-5-[3-[[(4S)-1-[[3-[[(3S,4S)-3-[1-(2,6-dioxo-3-piperidyl)-3-methyl-2-oxo-benzimidazol-5-yl]-4-fluoro-piperidine-1-carbonyl]amino]phenyl]methylsulfonyl]-2,2-dimethyl-4-piperidyl]amino]phenyl]thiophene-2-carboxylic acid] | 200 to 1000 | 50 to 200
Cn1c(=O)n(C2CCC(=O)NC2=O)c2ccc(OC3CN(C(=O)Nc4cccc(CS(=O)(=O)N5CC[C@H](Nc6cccc(-c7sc(C(=O)O)c(OCC(=O)O)c7Cl)c6)CC5(C)C)c4)C3)cc21 (stereo partly drawn) [Example 116] | 50 to 200 | 50 to 200
Cc1cn(C2CCC(=O)NC2=O)c2ccc(C3CCN(C(=O)Nc4cccc(CS(=O)(=O)N5CC[C@H](Nc6cccc(-c7sc(C(=O)O)c(OCC(=O)O)c7Cl)c6)CC5(C)C)c4)CC3)cc12 (stereo partly drawn) [Example 211, 3-(carboxymethoxy)-4-chloro-5-[3-[[(4S)-1-[[3-[[4-[1-(2,6-dioxo-3-piperidyl)-3-methyl-indol-5-yl]piperidine-1-carbonyl]amino]phenyl]methylsulfonyl]-2,2-dimethyl-4-piperidyl]amino]phenyl]thiophene-2-carboxylic acid] | 200 to 1000 | 200 to 1000
CC1(C)C[C@H](Nc2cccc(-c3sc(C(=O)O)c(OCC(=O)O)c3Cl)c2)CCN1S(=O)(=O)Cc1cccc(NC(=O)CCn2cc(CNc3cccc4c3C(=O)N(C3CCC(=O)NC3=O)C4=O)nn2)c1 (stereo partly drawn) [Example 14, 3-(carboxymethoxy)-4-chloro-5-(3-(((4R)-1-((3-(3-(4-(((2-(2,6-dioxopiperidin-3-yl)-1,3-dioxoisoindolin-4-yl)amino)methyl)-1H-1,2,3-triazol-1-yl)propanamido)benzyl)sulfonyl)-2,2-dimethylpiperidin-4-yl)amino)phenyl)thiophene-2-carboxylic acid] | 200 to 1000 | ≥ 1000
Cn1c(=O)n(C2CCC(=O)NC2=O)c2ccc([C@@H]3CN(C(=O)Nc4cccc(CS(=O)(=O)N5CC[C@H](Nc6cccc(-c7sc(C(=O)O)c(OCC(=O)O)c7Cl)c6)CC5(C)C)c4)CC[C@H]3F)cc21 (stereo partly drawn) [Example 213, 3-(carboxymethoxy)-4-chloro-5-[3-[[(4S)-1-[[3-[[(3R,4R)-3-[1-(2,6-dioxo-3-piperidyl)-3-methyl-2-oxo-benzimidazol-5-yl]-4-fluoro-piperidine-1-carbonyl]amino]phenyl]methylsulfonyl]-2,2-dimethyl-4-piperidyl]amino]phenyl]thiophene-2-carboxylic acid] | ≥ 1000 | 50 to 200
